Here are results for two compounds from patent EP1841748B1, “ORGANOSELENIUM CONTAINING COMPOUNDS AND THEIR USE” (Seoul National University Industry Foundation, priority 2004, dated 2006).

SMILES strings stand for the structures.

Data set [1] has as its target T1, PPARγ (Homo sapiens, UniProt P37231).
T1 construct: Full-length PPARs plasmid DNA, reporter DNA, which has luciferase activity; expressed in transfected cells; host or cells: CV-1 cells
T1 sequence (P37231 1-505): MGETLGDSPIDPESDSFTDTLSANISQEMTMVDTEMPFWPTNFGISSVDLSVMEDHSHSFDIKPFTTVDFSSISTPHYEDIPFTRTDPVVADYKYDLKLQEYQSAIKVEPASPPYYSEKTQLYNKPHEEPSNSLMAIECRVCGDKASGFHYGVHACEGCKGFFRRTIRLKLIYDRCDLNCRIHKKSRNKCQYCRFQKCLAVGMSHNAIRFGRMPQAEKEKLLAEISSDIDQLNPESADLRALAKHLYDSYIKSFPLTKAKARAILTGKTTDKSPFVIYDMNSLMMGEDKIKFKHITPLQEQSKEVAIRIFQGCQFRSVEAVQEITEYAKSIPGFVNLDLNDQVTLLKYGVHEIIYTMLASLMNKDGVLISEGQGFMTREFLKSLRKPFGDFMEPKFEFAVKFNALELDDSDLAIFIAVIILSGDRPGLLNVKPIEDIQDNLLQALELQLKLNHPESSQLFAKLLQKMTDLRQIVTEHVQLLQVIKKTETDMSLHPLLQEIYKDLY
As to the kind of experiment: Transfection assay (luciferase reporter, full-length PPARs plasmid DNA) in CV-1 cells. It counts as cell-based. The note with it: 24 hours treatment, luciferase calibrated with β-galactosidase. On the procedure:
(§1) Transfection assay was performed using CV-1 cells. The cells were cultured with a DMEM medium containing 10 % FBS, DBS (delipidated) and 1 % penicillin/streptomycin in 37 °C of a transfection assay culture system containing 5 % of carbon dioxide on a 96-well plate. Test was performed in four stages - cell inoculation, transfection, treatment with the compound of the present invention and confirmation. The CV-1 cells were inoculated on the 96-well plate, 5,000 cells/well. Transfection was performed 24 hours later. Full-length PPARs plasmid DNA, reporter DNA, which has luciferase activity and thus enables confirmation of the activity for PPARs, and β-galactosidase DNA, which offers effective information on the transfection, were used. HK101225 prepared in Example 4 was dissolved in dimethylsulfoxide (DMSO) and treated to the cells at various concentrations. After 24 hours of culturing in an incubator, the cells were lysed with a lysis buffer and luciferase activity and β-galactosidase activity were measured using a luminometer and a microplate reader. The measured luciferase activity was calibrated with the β-galactosidase activity. The result was depicted on a graph and EC50 was determined.

Data set [2] addresses T2, PPARα (Homo sapiens, UniProt Q07869).
T2 construct: Full-length PPARs plasmid DNA, reporter DNA, which has luciferase activity; expressed in transfected cells; host or cells: CV-1 cells
T2 sequence (Q07869 1-468): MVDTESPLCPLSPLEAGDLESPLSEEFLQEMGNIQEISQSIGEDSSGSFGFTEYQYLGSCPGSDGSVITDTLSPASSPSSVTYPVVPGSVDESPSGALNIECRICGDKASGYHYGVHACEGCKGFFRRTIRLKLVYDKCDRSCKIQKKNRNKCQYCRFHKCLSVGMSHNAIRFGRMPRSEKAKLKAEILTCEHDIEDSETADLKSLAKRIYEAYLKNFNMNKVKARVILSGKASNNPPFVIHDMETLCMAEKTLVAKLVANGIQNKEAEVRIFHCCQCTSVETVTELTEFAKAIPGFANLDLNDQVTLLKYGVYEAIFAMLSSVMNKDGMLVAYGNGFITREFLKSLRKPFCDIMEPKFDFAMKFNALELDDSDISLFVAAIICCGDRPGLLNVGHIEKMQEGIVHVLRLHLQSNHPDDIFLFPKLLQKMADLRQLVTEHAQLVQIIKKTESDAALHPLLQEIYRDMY
Described as above. As to conditions: 24 hours treatment, luciferase calibrated with β-galactosidase. Type of data set: cell-based. The protocol:
as §1

Data set [3] has as its target T3, PPARδ (Homo sapiens, UniProt Q03181).
T3 construct: Full-length PPARs plasmid DNA, reporter DNA, which has luciferase activity; expressed in transfected cells; host or cells: CV-1 cells
T3 sequence (Q03181 1-441): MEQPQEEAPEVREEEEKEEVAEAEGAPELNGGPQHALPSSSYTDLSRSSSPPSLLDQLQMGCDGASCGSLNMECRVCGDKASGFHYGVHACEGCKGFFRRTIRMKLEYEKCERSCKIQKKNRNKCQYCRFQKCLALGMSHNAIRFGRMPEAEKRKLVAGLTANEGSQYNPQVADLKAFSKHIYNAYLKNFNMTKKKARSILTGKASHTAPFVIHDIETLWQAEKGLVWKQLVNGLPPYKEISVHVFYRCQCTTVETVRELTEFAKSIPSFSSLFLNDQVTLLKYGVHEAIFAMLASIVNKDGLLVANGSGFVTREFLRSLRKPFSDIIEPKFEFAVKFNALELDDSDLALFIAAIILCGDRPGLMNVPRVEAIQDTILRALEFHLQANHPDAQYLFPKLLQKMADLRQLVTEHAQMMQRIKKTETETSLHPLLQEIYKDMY
Described as above. Type of data set: cell-based. The note with it: 24 hours treatment, luciferase calibrated with β-galactosidase. The protocol:
as §1

Data set [4] can be described thus: GTT (glucose tolerance test): improvement of diabetes. As to conditions: after 78-day oral administration; for change of blood sugar level with time: followed to 120 minutes. Type of data set: in vivo, mice. On the procedure:
GTT (glucose tolerance test) was performed in order to confirm the diabetic improvement effect of the compound of the present invention. A vehicle, GW501516 and HK101225 were orally administered to mice over a 78-day period. Then, glucose (1.5 g/kg) was abdominally administered and change of blood sugar level with time was checked.

A short description of data set [5]: Animal test: prevention of obesity under high-fat diet. Type of data set: in vivo, C57BL/6 mice. The note with it: for increase in body weight: 10 mg/kg/day orally over a 78-day period of high-fat diet (feed with 35 % fat), vehicle group 102 %; for increase in body weight relative to the vehicle group: 10 mg/kg/day orally, 78-day high-fat diet, fraction of vehicle group's increase. The protocol: Animal test was performed with mice in order to confirm the in vivo effect of HK101225. 14-weeks old C57BL/6 mice (SLC Co.) were used and a feed containing 35 % of fat was given to induce obesity. A vehicle, GW501516 (10 mg/kg/day) and HK101225 (10 mg/kg/day) were orally administered over a 78-day period of high-fat diet. […] Thus, it was confirmed that HK101225 has a strong prevention effect against obesity.

The test system of data set [6] is CV-1 cells. Briefly: MTT assay (cell toxicity). The note with it: 24 hours, at the concentration of 50,000 times of the EC50 (1.87 nM) value. It counts as cell-based. The protocol: Toxicity was tested by MTT assay for HK101225 prepared in Example 4. MTT is a water-soluble, yellow substance. However, when introduced in a living cell, it is transformed into a water-insoluble, purple crystal by the mitochondrial dehydrogenase. Cell toxicity can be tested by dissolving this substance in dimethylsulfoxide and measuring light absorbance at 550 nm. The test was performed as follows.
CV-1 cells were inoculated on a 96-well plate, 5,000 cells/well. After culturing for 24 hours in a humidified culture system of 37 °C containing 5 % of carbon dioxide, the cells were treated with HK101225 at various concentrations. MTT reagent was added after 24 hours of culturing. After culturing for about 15 minutes, the purple crystal was dissolved in dimethylsulfoxide and absorbance was measured with a microplate reader to confirm cell toxicity.

Turning to `Cc1cc([Se]Cc2sc(-c3ccc(C(F)(F)F)cc3)nc2C)ccc1OCC(=O)O` [HK101225, 2-[4-[[2-[4-(trifluoromethyl)phenyl]-4-methylthiazol-5-yl]methylselanyl]-2-methylphenoxy]acetic acid], in data set [1], the half-maximal effective concentration (EC50) was more than 10 µM. Further, the EC50 in data set [2] is more than 10 µM. Moreover, in data set [3], the midpoint of the response, the EC50, lay at 0.00187 µM. Moreover, the “fasting blood sugar level” value in data set [4] (compared with vehicle and GW501516 groups) is “lower fasting blood sugar level than the groups to which the vehicle and GW501516 were administered”. Also, in data set [4] (glucose 1.5 g/kg abdominally), the “time to complete glucose clearance” value was determined as 100 min; the “change of blood sugar level with time” value was “rapid decrease of blood sugar level between 20 and 40 minutes”. In addition, in data set [5], the “increase in body weight” value is listed as 21% and the “increase in body weight relative to the vehicle group” value is “about 1/5”. Moreover, the toxicity result in data set [6] is “no toxicity”.
`Cc1cc(SCc2sc(-c3ccc(C(F)(F)F)cc3)nc2C)ccc1OCC(=O)O` [GW501516, [2-methyl-4-[[[4-methyl-2-[4-(trifluoromethyl)phenyl]-1,3-thiazol-5-yl]methyl]sulfanyl]phenoxy]acetic acid, reference compound]: the “change of blood sugar level with time” value in data set [4] (glucose 1.5 g/kg abdominally) was “blood sugar level lower than that of the vehicle group, but did not restore to the normal level”. Besides, in data set [5], the “increase in body weight” value is listed as 21% and the “increase in body weight relative to the vehicle group” value is “about 1/5”.
